The results in this text go back to US9181577B2, “Treatment of chronic pelvic pain syndrome” (Northwestern University, priority 2010, dated 2015).

The assay has as its system pelvic pain behavior in EAP NOD mice. Briefly: Mast cell function inhibitors on established pelvic pain behavior in EAP model (von Frey tactile allodynia). The format is in vivo. As to conditions: 10 mg/kg each drug, intraperitoneal, at day 10 after PAg injection; tested one hour after drug administration. On the procedure:
Mice injected with rat prostate antigen (PAg) were tested at baseline and 10 days after injection for the development of pain behavior. Mice were treated at day 10 by intraperitoneal injection with saline (Control, A), 10 mg/kg each of cetrizine (H1, B), ranitidine (H2, C), Cromolyn sodium (MC stabilizer, D) or all three drugs (Combination, E) in a 200 μl volume. Following blinding of treatment and control groups, pelvic pain behavior was tested one hour after drug administration.
The experimental autoimmune prostatitis (EAP) model was selected for experiments conducted during development of embodiments of the present invention. Autoimmunity is one of the etiologies for patients with CPPS. Rat prostate antigen instillation in NOD mice provokes a chronic inflammation that is multifocal and evenly distributed in all the prostatic lobes. Pelvic pain was examined in NOD and C57BL/6 (B6) mice using quantitative behavior testing methods to assess tactile sensitivity of the suprapubic region. […] When expressed as increase in pain from baseline there was an approximately 350% increase in pain behavior compared to sham controls (SEE FIG. 1). This indicates the development of chronic pelvic pain in EAP mice and is the first report of chronic pain symptoms in an animal model of prostatitis.
Pelvic pain behavior in the EAP model was inhibited following the establishment of pain. EAP was induced in NOD mice and pelvic pain behavior at baseline and 10 days after disease onset was measured. Mice were administered a mast cell stabilizer, cromolyn sodium; a histamine receptor 1 antagonist, cetirizine; a histamine receptor 2 antagonist, ranitidine; and a combination of all three pharmacological agents or saline as control. Pelvic pain behavior was tested one hour after drug administration.
Consider `O=C(O)c1cc(=O)c2c(OCC(O)COc3cccc4oc(C(=O)O)cc(=O)c34)cccc2o1` [cromolyn sodium], for which the “reduction of pain behavior” value was determined as 39.6%.

Regarding `CNC(=C[N+](=O)[O-])NCCSCc1ccc(CN(C)C)o1` [ranitidine], the “reduction of pain behavior” value is given as 15.9%.

On to `O=C(O)COCCN1CCN(C(c2ccccc2)c2ccc(Cl)cc2)CC1` (stereo not drawn) [cetirizine], for which the “reduction of pain behavior” value came out at 13.6%.
